{
  "source": "patent US9139615B2",
  "about": "“High-affinity, dimeric inhibitors of PSD-95 as efficient neuroprotectants against ischemic brain damage and for treatment of pain” (University of Copenhagen, priority 2011, dated 2015)",
  "format_in_all_cases": "in vivo, mice",
  "key": {"[1]": {"system": "CFA-induced mechanical allodynia/hyperalgesia", "experiment": "Complete Freund's adjuvant (CFA) inflammatory pain, von Frey test", "settings": "for CFA-induced hyperalgesia: 0.1 mg/kg, given simultaneously with CFA"}, "[2]": {"system": "long-term reference memory", "experiment": "Social transmission of food preference (STFP) test", "settings": "0.1 mg/kg (dose reducing hyperalgesia)", "experimental": "STFP was conducted in two phases. […] A minimum of 2 and a maximum of 5 licking/sniffing interactions were set as criteria for appropriate acquisition of the odour cue. […] Second phase: following a 24-hour retention interval, the observer mice were placed individually in cages containing two trays of crushed food scented with cinnamon or cocoa, respectively. The amount eaten from the cued food over the novel food is taken as an index of memory for the previously cued food. […] Yet, experiments were designed in a balanced fashion to ensure that an equal number of mice within each treatment group were cued with cinnamon and cocoa, respectively.\n(§1) Cognitive data: In the social transmission of food preference test, the preference for the cued food was expressed as a discrimination index, DI=(cued−novel)/(cued+novel). In the modified Y-maze, the preference for the novel arm was expressed as a discrimination index, DI=(time in novel−time in familiar)/(time in novel+time in familiar). STFP and Y-maze data were analysed by one-way ANOVA followed by Planned Comparisons was performed to assess treatment effects on the discrimination index."}, "attention": {"system": "attention", "experiment": "Modified Y-maze test of attention", "settings": "0.05 and 0.1 mg/kg", "experimental": "Testing was carried out in a clear Plexiglass maze composed of 2 perpendicular arms connected to a runway. The 2 arms (available for exploration) and runway were 50 cm long and 8 cm wide, surrounded by clear Plexi-glass walls 30 cm high. Each arm met at a central platform equipped with black removable partitions, enabling arms to be opened and closed as desired. The whole maze was enclosed in a triangular black Plexiglass box (1×1×1 m). The walls of this outer box surrounding each exploration arm were covered with distinct optical cues, e.g., white horizontal or vertical lines. […] The cumulative time spent in each arm was recorded during this test session by an automated video tracking system (Ethovision, Noldus). A discrimination index (DI) was calculated for each mouse, defined as the difference in time spent in the novel and the familiar arm divided by the total time spent in the novel and the familiar arm during phase 2 testing, i.e. DI=(novel−familiar)/(novel+familiar).\nas §1, with “STFP and Y-maze data were analysed by one-way ANOVA followed by Planned Comparisons was performed to assess treatment effects on the discrimination index.” left out"}, "motor performance": {"system": "motor performance", "experiment": "Rotarod test of motor performance (side effects)", "settings": "0.1 mg/kg, at 15, 30, 45 and 60 min", "experimental": "Motor function was evaluated using an accelerating rotarod (MedAssociates, Inc., VT, USA). The rotarod (3.2 cm diameter) speed was increased from 4 to 40 rpm over a 300 s period with the minimum time possible to spend on the rod designated as 0 s and the maximum cut-off time set at 310 s. Each mouse was tested immediately prior to drug treatment (t=0), and again 15, 30, 45 and 60 minutes after drug treatment. When an animal fell off the rotating drum, a photobeam was automatically broken to record the amount of time spent on the rotating rod.\nMotor performance: In the rotarod test, treatment effect on motor coordination was analysed using a two-way RM ANOVA, with treatment as the independent factor and time as repeated measure. Planned comparisons procedure was used to assess treatment effects over time."}},
  "note": "“Also recorded” adds a separate entry of the source.",
  "data": [
    {"smiles": "C[C@]12N[C@H](Cc3ccccc31)c1ccccc12", "note": "[MK-801]", "values": [
      {"measurement": "CFA-induced hyperalgesia", "setting": "[1]; after 1 hour", "value": "significantly reversed the CFA-induced hyperalgesia"},
      {"measurement": "CFA-induced hyperalgesia", "setting": "[1]; after 24 hours", "value": "significant reversal was still observed"},
      {"measurement": "CFA-induced mechanical hyperalgesia", "setting": "[1]; administered concurrently with CFA, 1 hour and 24 hours after treatment", "value": "prevented the development of CFA-induced mechanical hyperalgesia"},
      {"measurement": "discrimination index, social transmission of food preference", "setting": "[2]", "value": "induced cognitive deficits; also recorded: significantly reduced the discrimination index"},
      {"measurement": "discrimination index, modified Y-maze", "setting": "attention", "value": "induced cognitive deficits; also recorded: discrimination index was reduced"},
      {"measurement": "motor performance, time on the rotarod", "setting": "motor performance", "value": "motor deficits; also recorded: significantly decreased time on the rotarod"}
    ]}
  ]
}
